Reference: PubChem BioAssay AID248 (DTP/NCI, 2004)
“And” between values parts separate entries of the source, which are not always exact repeats. Equal entries are not always repeated. Toxic doses and inconclusive results are not listed.

Test system: L1210 leukemia ip in BDF1 mice, survival T/C
Assay: NCI In Vivo Anticancer Drug Screen. Data for tumor model L1210 Leukemia (intraperitoneal) in B6D2F1 (BDF1) mice
Conditions: higher = longer survival
Procedure, shortened: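 Each compound was tested against a transplantable tumor grown in mice. The endpoint was survival, with treated animals benchmarked against vehicle controls as a simple ratio.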

With COc1ccc2[nH]c3c(C)c4ccncc4c(C)c3c2c1 the T/C (endpoint: mean survival time, dose: 100.0 mg/kg/injection, schedule: Q01DX Z (ip), vehicle: saline) was 109 % of control, the T/C (endpoint: mean survival time, dose: 100.0 mg/kg/injection, schedule: Q04DX003 (ip), vehicle: citric acid) was 110 % of control and the T/C (endpoint: mean survival time, dose: 100.0 mg/kg/injection, schedule: Q04DX003 (ip), vehicle: clinical formulation) was 93 % of control and 103 % of control. The T/C (endpoint: mean survival time, dose: 115.0 mg/kg/injection, schedule: Q01DX001 (ip), vehicle: saline) was 113 % of control, the T/C (endpoint: mean survival time, dose: 115.0 mg/kg/injection, schedule: Q01DX Z (oral), vehicle: saline) was 95 % of control and the T/C (endpoint: mean survival time, dose: 150.0 mg/kg/injection, schedule: Q01DX001 (ip), vehicle: saline) was 118 % of control. For the same compound, the T/C (endpoint: mean survival time, dose: 150.0 mg/kg/injection, schedule: Q01DX001 (sc), vehicle: other) was 120 % of control, the T/C (endpoint: mean survival time, dose: 150.0 mg/kg/injection, schedule: Q01DX001 (sc), vehicle: saline) was 107 % of control and the T/C (endpoint: mean survival time, dose: 170.0 mg/kg/injection, schedule: Q01DX001 (ip), vehicle: saline) was 108 % of control. The T/C (endpoint: mean survival time, dose: 170.0 mg/kg/injection, schedule: Q01DX Z (ip), vehicle: saline) was 104 % of control, the T/C (endpoint: mean survival time, dose: 225.0 mg/kg/injection, schedule: Q01DX001 (ip), vehicle: saline) was 115 % of control and the T/C (endpoint: mean survival time, dose: 255.0 mg/kg/injection, schedule: Q01DX Z (ip), vehicle: saline) was 96 % of control. The T/C (endpoint: mean survival time, dose: 255.0 mg/kg/injection, schedule: Q01DX Z (oral), vehicle: saline) was 106 % of control, the T/C (endpoint: mean survival time, dose: 300.0 mg/kg/injection, schedule: Q01DX001 (ip), vehicle: saline) was 122 % of control and the T/C (endpoint: mean survival time, dose: 300.0 mg/kg/injection, schedule: Q01DX001 (sc), vehicle: saline) was 103 % of control. For the same compound, the T/C (endpoint: mean survival time, dose: 600.0 mg/kg/injection, schedule: Q01DX001 (oral), vehicle: other) was 92 % of control, the T/C (endpoint: mean survival time, dose: 600.0 mg/kg/injection, schedule: Q01DX001 (sc), vehicle: saline) was 111 % of control and the T/C (endpoint: mean survival time, dose: 1200.0 mg/kg/injection, schedule: Q01DX001 (oral), vehicle: saline) was 104 % of control. For the same compound, the T/C (endpoint: median survival time, dose: 2.0 mg/kg/injection, schedule: Q03HX008 (oral), vehicle: other) was 100 % of control, the T/C (endpoint: median survival time, dose: 2.0 mg/kg/injection, schedule: Q03HX008 (sc), vehicle: water) was 100 % of control and the T/C (endpoint: median survival time, dose: 4.0 mg/kg/injection, schedule: Q01DX009 (ip), vehicle: other) was 116 % of control. For the same compound, the T/C (endpoint: median survival time, dose: 4.0 mg/kg/injection, schedule: Q01DX009 (oral), vehicle: other) was 111 % of control, the T/C (endpoint: median survival time, dose: 4.0 mg/kg/injection, schedule: Q01DX009 (sc), vehicle: water) was 100 % of control and the T/C (endpoint: median survival time, dose: 4.0 mg/kg/injection, schedule: Q03HX008 (oral), vehicle: other) was 111 % of control. For the same compound, the T/C (endpoint: median survival time, dose: 4.0 mg/kg/injection, schedule: Q03HX008 (sc), vehicle: water) was 111 % of control, the T/C (endpoint: median survival time, dose: 8.0 mg/kg/injection, schedule: Q01DX009 (oral), vehicle: other) was 111 % of control and the T/C (endpoint: median survival time, dose: 8.0 mg/kg/injection, schedule: Q01DX009 (sc), vehicle: water) was 116 % of control. The T/C (endpoint: median survival time, dose: 8.0 mg/kg/injection, schedule: Q03HX008 (oral), vehicle: other) was 94 % of control, the T/C (endpoint: median survival time, dose: 8.0 mg/kg/injection, schedule: Q03HX008 (sc), vehicle: water) was 122 % of control and the T/C (endpoint: median survival time, dose: 16.0 mg/kg/injection, schedule: Q01DX001 (oral), vehicle: other) was 100 % of control. The T/C (endpoint: median survival time, dose: 16.0 mg/kg/injection, schedule: Q01DX001 (sc), vehicle: water) was 111 % of control, the T/C (endpoint: median survival time, dose: 16.0 mg/kg/injection, schedule: Q01DX009 (ip), vehicle: water) was 111 % of control and the T/C (endpoint: median survival time, dose: 16.0 mg/kg/injection, schedule: Q01DX009 (oral), vehicle: other) was 122 % of control. The T/C (endpoint: median survival time, dose: 16.0 mg/kg/injection, schedule: Q03HX008 (oral), vehicle: other) was 116 % of control, the T/C (endpoint: median survival time, dose: 32.0 mg/kg/injection, schedule: Q01DX001 (oral), vehicle: other) was 111 % of control and the T/C (endpoint: median survival time, dose: 32.0 mg/kg/injection, schedule: Q01DX009 (ip), vehicle: other) was 100 % of control. The T/C (endpoint: median survival time, dose: 32.0 mg/kg/injection, schedule: Q01DX009 (ip), vehicle: water) was 100 % of control, the T/C (endpoint: median survival time, dose: 32.0 mg/kg/injection, schedule: Q01DX009 (oral), vehicle: other) was 105 % of control and the T/C (endpoint: median survival time, dose: 32.0 mg/kg/injection, schedule: Q03HX008 (sc), vehicle: water) was 150 % of control. For the same compound, the T/C (endpoint: median survival time, dose: 64.0 mg/kg/injection, schedule: Q01DX001 (oral), vehicle: other) was 111 % of control, the T/C (endpoint: median survival time, dose: 64.0 mg/kg/injection, schedule: Q01DX001 (sc), vehicle: water) was 111 % of control and the T/C (endpoint: median survival time, dose: 64.0 mg/kg/injection, schedule: Q01DX009 (sc), vehicle: water) was 116 % of control. The T/C (endpoint: median survival time, dose: 128.0 mg/kg/injection, schedule: Q01DX001 (oral), vehicle: other) was 122 % of control, the T/C (endpoint: median survival time, dose: 128.0 mg/kg/injection, schedule: Q01DX009 (oral), vehicle: other) was 111 % of control and the T/C (endpoint: median survival time, dose: 256.0 mg/kg/injection, schedule: Q01DX001 (sc), vehicle: water) was 122 % of control.
